Measurements from paper PMC11187126, “Structure and dynamics of the pyroglutamylated RF-amide peptide QRFP receptor GPR103” (Nature Communications, 2024).
Read-outs that look alike come from different tables or passages of the source. No end group written: not given here.

Biological target: T1, GPR103 E297^6.59A (Homo sapiens, UniProt Q96P65, E297A)
T1 construct: we used human full-length QRFPR-encoding plasmids; expressed in transfected cells; host or cells: HEK293 cells (HEK293A in the flow cytometry section), pCAGGS vector
T1 sequence (Q96P65 1-431 E297A): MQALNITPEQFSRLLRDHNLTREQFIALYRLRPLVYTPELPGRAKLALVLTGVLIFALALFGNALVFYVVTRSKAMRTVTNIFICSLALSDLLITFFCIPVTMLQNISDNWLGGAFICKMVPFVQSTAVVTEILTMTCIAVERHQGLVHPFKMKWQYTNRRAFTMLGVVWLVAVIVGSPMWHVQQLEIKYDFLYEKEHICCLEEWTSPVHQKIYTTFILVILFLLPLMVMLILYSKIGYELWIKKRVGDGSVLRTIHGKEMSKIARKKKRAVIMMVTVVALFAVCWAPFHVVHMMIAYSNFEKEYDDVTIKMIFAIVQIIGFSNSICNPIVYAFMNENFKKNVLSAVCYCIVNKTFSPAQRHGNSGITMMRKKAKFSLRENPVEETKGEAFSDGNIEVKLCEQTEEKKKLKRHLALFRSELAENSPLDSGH
Test: TGFα shedding assay; Exp. level >WT (1:1)
Type: cell-based
Procedure: For the TGFα shedding assay and the flow cytometry analysis, we used human full-length QRFPR-encoding plasmids. Specifically, GPR103 was N-terminally modified with an HA signal sequence followed by a FLAG epitope and then a flexible linker ([…]; the FLAG epitope is underlined) and inserted into the pCAGGS vector. Plasmid encoding GPR103 mutants were generated using Quickchange Site-Directed Mutagensis kit (Agilent).
The TGFα shedding assay was performed as described previously with minor modifications. Plasmid transfection was performed in a 6-well plate with a mixture of 500 ng (per well in a 6-well plate) AP-TGFα-encoding plasmid and 200 ng GPR103-encoding plasmid. After 1-day culture, the transfected cells were harvested by trypsinization, pelleted by centrifugation at 190 × g for 5 min, and washed once with 5 mM HEPES (pH 7.4)-containing Hank’s Balanced Salt Solution (HBSS). After centrifugation, the cells were resuspended in 8 mL of the HEPES-containing HBSS. The cell suspension was seeded in a 96-well culture plate (cell plate) at a volume of 90 μL (per well hereafter) and incubated in a 37 °C incubator with 5% CO2 for 30 min. […] After spinning the cell plates at 190 × g for 2 min, 80 μL of conditioned media was transferred to an empty 96-well plate (conditioned media (CM) plate). Then, 80 μL of AP reaction solution (10 mM p-nitrophenylphosphate (p-NPP), 120 mM Tris-HCl (pH 9.5), 40 mM NaCl, and 10 mM MgCl2) was dispensed into the cell plates and the CM plates. Absorbance at 405 nm of the plates was measured using a microplate reader (SpectraMax 340 PC384, Molecular Devices) before and after 1-h incubation at room temperature. Ligand-induced AP-TGFα release was calculated by subtracting spontaneous AP-TGFα release signal from ligand-induced AP-TGFα release signal. The AP-TGFα release signals were fitted to a four-parameter sigmoidal concentration–response curve, using the Prism 10 software (GraphPad Prism). For each replicate experiment, the pEC50 parameter (negative logarithmic values of EC50 values) of the individual GPR103 mutants were normalized to that of the wild-type GPR103 performed in parallel, and resulting ∆pEC50 values were used to denote ligand response activity of the mutants. […]
Exp. le vel: WT (1:5 0)Exp. le vel: WT (1:5 0)Exp. le vel: WT (1:5 0)Exp. le vel: WT (1:2 0)Exp. le vel: WT (1:2 0)Exp. le vel: WT (1:1 0) […]
L1 4N - t e r mA F2 5N - t e r mA I 2 6N - t e r mA Y 2 9N - t e r mA C 9 82 .5 7A T10 22 .6 1A Exp . l eve l: WT (1 :5)Exp . l evel : >WT (1 :1)Exp. le vel: WT (1:2 0)Exp. le vel: WT (1:2 0)Exp. le vel: WT (1:5 0)Exp . l eve l: WT (1 :1) […]
Exp. le vel: WT (1:1 0)Exp. le vel: WT (1:2 0) C 1 1 83 .2 5AExp. le vel: WT (1:5 0)Exp. le vel: WT (1:5 0)Exp. le vel: WT (1:2 0)Exp . l eve l: WT (1 :5) […]
Exp. le vel: WT (1:5 0)Exp. le vel: WT (1:1 0)Exp. le vel: WT (1:5 0) E203ECL2AExp . l evel : >WT (1 :1)Exp. le vel: WT (1:5 0)Exp. le vel: WT (1:5 0) […]
Exp . l eve l: WT (1 :1) F28Exp. le vel: WT (1:5 0) C 2 8 56 .4 7AExp. le vel: WT (1:2 0) WExp. le vel: WT (1:2 0) F28Exp. le vel: WT (1:5 0)Exp . l evel : >WT (1 :1) […]
Exp. le vel: WT (1:5 0)Exp. le vel: WT (1:5 0) C 3 2 77 .4 8AExp . l eve l: WT (1 :5)Exp . l evel : >WT (1 :1)Exp . l evel : >WT (1 :1) […]
Suppl eme nt ary Figure 1 | Mutational analysis of GPR103. […]
mutants. Data are presented as mean values ± SEM, normally n=3-5; dots), each performed in triplicate. b-d Cell-surface expression (b) and QRFP26-in-duced activation of GPR103 (c, d) were analyzed by the flow cytometry and the TGFα shedding assay, respectively. From the concentration–response curves (a), Emax (c) and ΔpEC50 (d) values relative to the wild type were calculated. Colors in the mutant bars indicate an expression level matching to that of titrated wild type. Statistical analyses were performed using the ordinary one-way ANOVA followed by Dunnett tests with the expression-matched […]

Substance: TSGPLGNLAEELNGYSRKKGGFSFRF-NH2 [QRFP26]
- Emax (Exp. #1): 106.77 % WT
- Emax (Exp. #2): 105.91 % WT
- Emax (Exp. #3): 110.91 % WT
- Emax (mean, read-out: Emax): 108%
- EC50 (n = 3): 28.2 nM
- Emax (n = 3, read-out: Emax): 112 ± 1.3%
